Results taken from patent US20240374487A1, “ANTI-AGING AGENT, COSMETIC PRODUCT, WET TOWEL, AND HYGIENE PRODUCT” (VB JAPAN TECHNOLOGY CO., LTD., priority 2021, published 2024).

Assays:
intracellular ROS [1] = assay: Intracellular ROS production against hydrogen peroxide (DCF-DA); format: cell-based, human; settings: added before and after 0.2 mM hydrogen peroxide, 1-300 μg/mL
Protocol: Measurement of intracellular ROS was performed using fluorescence using dichlorofluorescin diacetate (DCF-DA; Invitrogen, Carlsbad, CA, USA). Specifically, cells were washed with PBS, and then incubated with 10 μM DCF-DA at 37° C. for 20 minutes. The intracellular ROS level was measured at an excitation wavelength of 525 nm using fluorescence intensity using the micro plate reader (SYNERGY/HT, BioTek, Japan).
(§1) Normal human dermal fibroblasts were cultured for 2 hours in a culture solution to which 0.2 mM hydrogen peroxide was added, then washed off with PBS, and replaced with a normal medium to continue the cultivation. VB2 and VB3 were each added at any timing before or after hydrogen peroxide was added, and co-cultured for 4 hours. Thereafter, the cells or the culture solution were recovered.
According to the procedure described in “Measurement of Cell Viability” above, normal human dermal fibroblasts were treated and cultured (co-culture), and cells or the culture solution was recovered. The concentrations of VB2 and VB3 used and the notation of the samples in FIGS. 6 and 7, which are graphs showing the results, are also similar to the above “Measurement of Cell Viability”.
The measurement of intracellular ROS and the measurement of superoxide (SOD) were performed by the same methods as the methods described in “Measurement of Intracellular Reactive Oxygen (ROS) Production and Superoxide (SOD) against AGE” above, respectively.
FIGS. 6 and 7 show the results of each sample when Control is 100%.

hyaluronic acid = assay: Hyaluronic acid secreted into culture supernatant (ELISA); format: cell-based, human
Protocol: as §1
(§2) According to the procedure described in “Measurement of Cell Viability” above, normal human dermal fibroblasts were treated and cultured (co-culture), and cells or the culture solution was recovered. The concentrations of VB2 and VB3 used and the notation of the samples in FIGS. 10 and 11, which are graphs showing the results, are also similar to the above “Measurement of Cell Viability”.
(§3) The production amounts of hyaluronic acid and Elastin were measured by an ELISA method. The results of measuring the amount of hyaluronic acid secreted from normal human dermal fibroblasts into the culture supernatant by the ELISA method are shown in FIG. 10, and the results of measuring the amount of intracellular Elastin production by the ELISA method are shown in FIG. 11.

[2] = system: normal human dermal fibroblasts; assay: Cell viability under hydrogen peroxide oxidative stress (Cell counting-8 kit); format: cell-based; settings: for cell viability, trend: 1-300 μg/mL
Protocol: (§4) Normal human dermal fibroblasts (NHDF), juvenile foreskin (C-12300, PromoCell) were cultured in a dedicated medium, Fibroblast Growth Medium (C-23010, PromoCell) at 37° C. in a 5% CO2 incubator.
as §1
In FIG. 5 which is a graph showing the results, a sample obtained by adding VB2 or VB3 after adding hydrogen peroxide was denoted as “H2O2-VB2” and “H2O2-VB3”, respectively, and a sample obtained by adding hydrogen peroxide after adding VB2 or VB3 was denoted as “VB2-H2O2” and “VB3-H2O2”, respectively.
Here, VB2 and VB3 were added at concentrations of 1 μg/mL, 10 μg/mL, 100 μg/mL, and 300 μg/mL, respectively.
The normal human dermal fibroblasts to which neither hydrogen peroxide nor VB2 nor VB3 was added were treated in the same manner as described above, and measured as Control. In addition, a sample to which VB2 or VB3 was not added (in FIG. 5, it is denoted as “H2O2”) was also treated in the same manner as described above, and measurement was performed.
The number of surviving cells in normal human dermal fibroblasts was measured using Cell counting −8 kit (DOJINDO: , Japan).

SOD = SOD amount against hydrogen peroxide (SOD Assay Kit); format: cell-based, human; settings: added before and after 0.2 mM hydrogen peroxide, 1-300 μg/mL (H2O2 only 56% of Control)
Protocol: Superoxide (SOD) was measured using SOD Assay Kit (Cayman Chemical, Ann arbor, MI, USA). Cells that had been subjected to various treatments were incubated for 24 hours, and then a Lysis buffer was added, homogenized, and centrifuged. Then, 10 μL of each sample was mixed with 200 μL of xanthine oxidase at room temperature. After 30 minutes, the absorbance at 450 nm was measured.
as §1
According to the procedure described in “Measurement of Cell Viability” above, normal human dermal fibroblasts were treated and cultured (co-culture), and cells or the culture solution was recovered. The concentrations of VB2 and VB3 used and the notation of the samples in FIGS. 6 and 7, which are graphs showing the results, are also similar to the above “Measurement of Cell Viability”. […]

FEEL-1 = FEEL-1 mRNA level by qRT-PCR in AGE-treated fibroblasts; format: cell-based, human; settings: co-existence with AGE 100 μg/mL, 4 hours, compared with AGE single stimulation group
Protocol: as §4
(§5) First, as a co-existence group of VB and AGE, normal human dermal fibroblasts were treated with AGE (100 μg/mL), and the above VB2 (concentration after dilution: 115 μg/ml) and VB3 (concentration after dilution: 1000 μg/mL) diluted to an accurate 1/1000 amount were each added and retained at 37° C. for 4 hours. […]
(§6) Then, total RNA was extracted from the cells using Trizol reagent (Ambion), and mRNA levels of AGE receptor (FEEL-1, FEEL-2, CD-36, AGE-R1, AGE-R2, AGE-R3 and RAGE) and heat shock protein (Hsp104, gp96, Hsp90, Hsp70, Hsp60, and Hsp32) were measured by qRT-PCR (one-step quantitative reverse transcription-polymerase chain reaction) method. […]
(§7) The qRT-PCR method used for the measurement of AGE receptor, heat shock protein, aquaporin, hyaluronic acid, and Elastin will be described. In the qRT-PCR method, 500 ng of the obtained total RNA was used as a template for PCR, and one step RT-PCR capable of performing CDNA synthesis by a reverse transcription reaction (Reverse Transcriptase; RT reaction) and quantitative PCR in one test tube was performed using Luna Universal One-Step qRT-PCR Kit. […]

intracellular ROS [3] = assay: Intracellular ROS against AGE (DCF-DA fluorescence); format: cell-based, human; settings: AGE 100 μg/mL, 4 hours, FIG. 3
Protocol: as §4
Normal human dermal fibroblasts were treated with AGE (100 μg/mL) and maintained at 37° C. for 4 hours with the addition of VB2 and VB3, respectively. Here, VB2 and VB3 were added at concentrations of 1 μg/mL, 10 μg/mL, 100 μg/mL, and 300 μg/mL, respectively. In FIGS. 3 and 4, which are graphs showing the results, those to which VB2was added were denoted as “VB2-AGE”, and those to which VB3 was added were denoted as “VB3-AGE”.
As Control, measurement was also performed on normal human dermal fibroblasts which were not treated with AGE and were held at 37° C. for 4 hours without addition of VB2 or VB3, and as an AGE single stimulation group, measurement was also performed on normal human dermal fibroblasts which were treated with AGE (100 μg/mL) and were held at 37° C. for 4 hours without addition of VB2 or VB3 (in FIGS. 3 and 4, it is denoted as “AGE”.).
Measurement of intracellular ROS was performed using fluorescence using dichlorofluorescin diacetate (DCF-DA; Invitrogen, Carlsbad, CA, USA). […] The intracellular ROS level was measured at an excitation wavelength of 525 nm using fluorescence intensity using the micro plate reader (SYNERGY/HT, BioTek, Japan).

AQP-1 = AQP-1 mRNA level under oxidative stress (qRT-PCR); format: cell-based, human
Protocol: as §1
(§8) According to the procedure described in “Measurement of Cell Viability” above, normal human dermal fibroblasts were treated and cultured (co-culture), and cells or the culture solution was recovered. The notation of the sample in FIGS. 8 and 9, which are graphs showing the results, is also the same as in the “Measurement of Cell Viability” described above.
(§9) The measurement of aquaporin was performed for AQP-1 and AQP-3 by a qRT-PCR method, and the measurement result was obtained by a ΔΔCt method. […] The qRT-PCR method is s specifically described in “qRT-PCR method” described later.
(§10) The qRT-PCR method used for the measurement of AGE receptor, heat shock protein, aquaporin, hyaluronic acid, and Elastin will be described. In the qRT-PCR method, 500 ng of the obtained total RNA was used as a template for PCR, and one step RT-PCR capable of performing CDNA synthesis by a reverse transcription reaction (Reverse Transcriptase; RT reaction) and quantitative PCR in one test tube was performed using Luna Universal One-Step qRT-PCR Kit.
(§11) As a PCR device, Thermal Cycler Dice Real Time System II manufactured by Takara was used. As one reaction system, 10 μL of Luna Universal One-Step Reaction Mix (2×), 1 μL of Luna WarmStart RT Enzyme Mix (20×), 0.8 μL of Forward primer (10 μM), 0.8 μL of Reverse primer, and Total RNA as a template for the PCR were used, and the total amount was adjusted to 20 μL in Nuclease-free Water.
(§12) The reaction was performed under the conditions of 1 cycle of 30 seconds at 95° C., and further cycles of 5 seconds at 95° C. and 30 seconds at 60° C. for 50 cycles. A variation in mRNA expression by 4 times or more (2 cycles as PCR reaction) was determined as a significant difference.

RAGE = RAGE mRNA level by qRT-PCR in AGE-treated fibroblasts; format: cell-based, human; settings: co-existence with AGE 100 μg/mL, 4 hours, compared with AGE single stimulation group
Protocol: as §4, §5, §6, §7

[4] = system: AGE receptor (FEEL-1, FEEL-2, CD-36, AGE-R1, AGE-R2, AGE-R3 and RAGE); assay: mRNA levels of AGE receptors by qRT-PCR in normal human dermal fibroblasts; format: cell-based; settings: VB alone, no AGE, 37° C. 4 hours, compared with untreated group
Protocol: as §4, §5, §6, §7

AQP-3 = AQP-3 mRNA level under oxidative stress (qRT-PCR); format: cell-based, human
Protocol: as §1, §8, §9, §10, §11, §12

Elastin = assay: Intracellular Elastin production (ELISA); format: cell-based, human
Protocol: as §1, §2, §3

FEEL-2 = FEEL-2 mRNA level by qRT-PCR in AGE-treated fibroblasts; format: cell-based, human; settings: co-existence with AGE 100 μg/mL, 4 hours, compared with AGE single stimulation group
Protocol: as §4, §5, §6, §7

[5] = system: heat shock protein (Hsp104, gp96, Hsp90, Hsp70, Hsp60, and Hsp32); assay: mRNA levels of heat shock proteins by qRT-PCR in fibroblasts; format: cell-based, human; settings: 4 hours
Protocol: as §4
First, as a co-existence group of VB and AGE, normal human dermal fibroblasts were treated with AGE (100 μg/mL), and the above VB2 (concentration after dilution: 115 μg/ml) and VB3 (concentration after dilution: 1000 μg/mL) diluted to an accurate 1/1000 amount were each added and retained at 37° C. for 4 hours.
In addition, as the VB single stimulation group, normal human dermal fibroblasts were not treated with AGE, and the above VB2 and VB3 diluted to an accurate 1/1000 amount were each added and held at 37° C. for 4 hours. Furthermore, as the AGE single stimulation group, normal human dermal fibroblasts were treated with AGE and kept at 37° C. for 4 hours without addition of VB2 or VB3. In addition, as an untreated group, normal human dermal fibroblasts were not treated with AGE, and were kept at 37° C. for 4 hours without adding VB2 or VB3.
Then, total RNA was extracted from the cells using Trizol reagent (Ambion), and mRNA levels of AGE receptor (FEEL-1, FEEL-2, CD-36, AGE-R1, AGE-R2, AGE-R3 and RAGE) and heat shock protein (Hsp104, gp96, Hsp90, Hsp70, Hsp60, and Hsp32) were measured by qRT-PCR (one-step quantitative reverse transcription-polymerase chain reaction) method.
The measurement results for AGE receptor are shown in FIG. 1, and the measurement results for heat shock protein are shown in FIG. 2. In FIG. 1 and FIG. 2, for the co-existence group of AGE and VB, samples to which VB2 and VB3 were added are indicated as VB2(+)AGE and VB3(+)AGE, respectively, and these values were shown in comparison with the AGE single stimulation group. In addition, for the VB single stimulation group, samples to which VB2 and VB3 were added were indicated as VB2 alone and VB3 alone, respectively, and these values were shown in comparison with the untreated group.
as §10
As a PCR device, Thermal Cycler Dice Real Time System II manufactured by Takara was used. […]
as §12

[6] = added in advance before oxidative stress, compared with addition after
[7] = added before or after 0.2 mM hydrogen peroxide
[8] = added in advance before applying oxidative stress

Substance: Na9[SbW9O33] [VB3]
- ROS production (intracellular ROS [1]): suppressed in a concentration-dependent manner
- amount of hyaluronic acid (hyaluronic acid; 0.2 mM hydrogen peroxide oxidative stress, culture supernatant): tended to be recovered
- hyaluronic acid repair ability, addition before vs after oxidative stress (hyaluronic acid; [6]): tended to have a stronger repair ability
- maximum cell viability ([2]; added after 0.2 mM hydrogen peroxide, 300 μg/mL, % of Control (H2O2 only 59%)): 78%
- cell viability, trend ([2]; added after 0.2 mM hydrogen peroxide): increased in a concentration-dependent manner
- cell viability, trend ([2]; added in advance before 0.2 mM hydrogen peroxide): significant increase in a concentration-dependent manner
- SOD amount (SOD): tended to be recovered in a concentration-dependent manner
- mRNA level of FEEL-1 (FEEL-1): significantly increased
- intracellular ROS under AGE stimulation (intracellular ROS [3]): suppress the increase in ROS
- mRNA level of AQP-1 (AQP-1; [7]): increased
- AQP-1 mRNA repair ability, addition before vs after oxidative stress (AQP-1; [6]): tended to have a stronger repair ability
- mRNA level of RAGE (RAGE): significantly increased
- mRNA expression of AGE receptor [4]: did not affect
- mRNA level of AQP-3 (AQP-3; [7]): increased
- AQP-3 mRNA repair ability, addition before vs after oxidative stress (AQP-3; [6]): tended to have a stronger repair ability
- Elastin production amount (Elastin; added after application of oxidative stress (H2O2 only 56% of Control)): could not be recovered
- Elastin production amount (Elastin; [8]): significant recovery
- concentration at which Elastin production amount was significantly higher than Control (Elastin; [8]): 300 µg/mL
- mRNA level of FEEL-2 (FEEL-2): significantly increased
- mRNA expression of Hsp ([5]; VB alone, no AGE, compared with untreated group): did not affect
- mRNA levels of all Hsps other Hsp 90 among the examined Hsps ([5]; co-existence with AGE 100 μg/mL, compared with AGE single stimulation group): significantly increased
